Assay results taken from patent US20040077881A1, “$G(d)1-pyrrolines used in pest control” (priority 2001, published 2004).
Read-outs that look alike come from different tables or passages of the source.

Tests used:
[1] = logP determination by HPLC (EEC directive 79/831 Annex V.A8, reversed-phase C 18); assay type: physicochemical; settings: for chromatographic logP: reversed-phase HPLC column (C 18); for log P2: second HPLC peak of the mixture of diastereomers
Description: The stated logP values were determined in accordance with EEC directive 79/831 Annex V.A8 by HPLC (High Performance Liquid Chromatography) using a reversed-phase column (C 18). Temperature: 43° C. In the acidic range, the determination was carried out at pH 2.3 using the mobile phases 0.1% aqueous phosphoric acid and acetonitrile; linear gradient from 10% acetonitrile to 90% acetonitrile.

[2] = test system: larvae of the mustard beetle (Phaedon cochleariae); assay: Phaedon larvae test; assay type: in vivo; settings: 168 h, cabbage leaves dipped, after 7 d, read-out: Kill rate in % after 7 d
Description: [table] To produce a suitable preparation of active compound, 1 part by weight of active compound is mixed with the stated amounts of solvent and emulsifier, and the concentrate is diluted with emulsifier-containing water to the desired concentration. Cabbage leaves (Brassica oleracea) are treated by being dipped into the preparation of active compound of the desired concentration and are populated with larvae of the mustard beetle (Phaedon cochleariae) whilst the leaves are still moist. After the desired period of time, the kill in % is […]. 100% means that all beetle larvae have been killed; 0% means that none of the beetle larvae have been killed.

[3] = test system: greenhouse red spider mite (Tetranychus urticae); assay: Tetranychus test (OP-resistant/dip treatment); assay type: in vivo; settings: 100 ppm, bean plants dipped, OP-resistant
Description: [table] To produce a suitable preparation of active compound, 1 part by weight of active compound is mixed with the stated amounts of solvent and emulsifier, and the concentrate is diluted with emulsifier-containing water to the desired concentration. Bean plants (Phaseolus vulgaris) which are heavily infested by all stages of the greenhouse red spider mite (Tetranychus urticae) are dipped into a preparation of active compound of the desired concentration. After the desired period of time, the effect in % is determined. 100% means that all spider mites have been killed; 0% means that none of the spider mites have been killed.

[4] = pH 2.3, first HPLC peak of the mixture of diastereomers, reversed-phase C 18, 43° C., pH 2.3, read-out: log P1
[5] = reversed-phase C 18, 43° C., pH 2.3
[6] = pH 2.3, HPLC, reversed-phase column (C 18), 43° C., pH 2.3, 0.1% aqueous phosphoric acid/acetonitrile, read-out: log P
[7] = pH 2.3, second HPLC peak of the mixture of diastereomers, reversed-phase C 18, 43° C., pH 2.3, read-out: log P2

Which chromatographic logP [1, 4] does the source give for Fc1cccc(F)c1C1=NC(c2ccc(-c3ccc(OC(F)(F)F)cc3)cc2)CC1Cl (centres unmarked) [Example 1, 4-chloro-5-(2,6-difluorophenyl)-2-[4′-(trifluoromethoxy)-1,1′-biphenyl-4-yl]-3,4-dihydro-2H-pyrrole] here?
Its chromatographic logP is 5.31.

What about the “log P2” value [1, 5] of the same compound?
Its value is 5.39.

With Fc1cccc(F)c1C1=N[C@@H](c2ccc(-c3ccc(OC(F)(F)F)cc3)cc2)CC1Cl (stereo partly drawn) [Example 2, (2R)-4-chloro-5-(2,6-difluorophenyl)-2-[4′-(trifluoromethoxy)-1,1′-biphenyl-4-yl]-3,4-dihydro-2H-pyrrole] as the compound, how does the chromatographic logP [1, 4] read?
The chromatographic logP was 5.31.

What about the “log P2” value [1, 5] of the same compound?
Its value is 5.39.

Which results are given for O=S(=O)(Oc1ccc([C@H]2CC(Cl)C(c3c(F)cccc3F)=N2)cc1)C(F)(F)F (stereo partly drawn) [Example 3, 4-[(2R)-4-chloro-5-(2,6-difluorophenyl)-3,4-dihydro-2H-pyrrol-2-yl]phenyl-trifluoromethanesulphonate]?
chromatographic logP [1, 4]: 4.34; log P2 [1, 5]: 4.40

With O=S(=O)(Oc1ccc([C@H]2CC(Cl)(Cl)C(c3c(F)cccc3F)=N2)cc1)C(F)(F)F [Example 5] as the compound, how does the chromatographic logP [1, 6] read?
The chromatographic logP was 4.88.

Which chromatographic logP [1, 6] does the source give for Fc1cccc(F)c1C1=N[C@@H](c2ccc(-c3ccc(OC(F)(F)F)cc3)cc2)CC1(Cl)Cl [Example 6, (2R)-4,4-dichloro-5-(2,6-difluorophenyl)-2-[4′-(trifluoromethoxy)-1,1′-biphenyl-4-yl]-3,4-dihydro-2H-pyrrole] here?
Its chromatographic logP is 5.91.

Which chromatographic logP [1, 6] does the source give for O=S(=O)(Oc1ccc(-c2ccc([C@H]3C[C@H](Cl)C(c4c(F)cccc4F)=N3)cc2)cc1)C(F)(F)F [Example 7, 4′-[(2R)-4-chloro-5-(2,6-difluorophenyl)-3,4-dihydro-2-yl]-1,1′-biphenyl-4-yl trifluoromethanesulphonate] here?
The chromatographic logP was 5.22.

What does the source list for O=S(=O)(Oc1ccc([C@H]2CC(Br)C(c3c(F)cccc3F)=N2)cc1)C(F)(F)F (stereo partly drawn) [Example 8, 4-[(2R)-4-bromo-5-(2,6-difluorophenyl)-3,4-dihydro-2-pyrrol-2-yl]phenyl-trifluoromethanesulphonate]?
chromatographic logP [1, 4]: 4.39; chromatographic logP [1, 7]: 4.49

Which chromatographic logP [1, 6] does the source give for O=S(=O)(Oc1ccc([C@H]2CC(Br)(Br)C(c3c(F)cccc3F)=N2)cc1)C(F)(F)F [Example 9, 4-[(2R)-4,4-dibromo-5-(2,6-difluorophenyl)-3,4-dihydro-2H-pyrrol-2-yl]phenyl-trifluoromethanesulphonate] here?
The chromatographic logP was 4.97.

With Fc1cccc(F)c1C1=N[C@@H](c2ccc(-c3ccc(OC(F)(F)F)cc3)cc2)CC1(Br)Br [Example 10, (2R)-4,4-dibromo-5-(2,6-difluorophenyl)-2-[4′-(trifluoromethoxy)-1,1′-biphenyl-4-yl]-3,4-dihydro-2H-pyrrole] as the compound, how does the chromatographic logP [1, 6] read?
The chromatographic logP was 6.01.

Which chromatographic logP [1, 6] does the source give for CC1(C)CC(c2ccc(-c3ccc(OC(F)(F)F)cc3)cc2)N=C1c1c(F)cccc1F (centres unmarked) [Example 11, 4,4-dimethyl-5-(2,6-difluorophenyl)-2-[4′-(trifluoromethoxy)-1,1′-biphenyl-4-yl]-3,4-dihydro-2H-pyrrole] here?
The chromatographic logP was 5.67.

What does the source list for O=S(=O)(O)C1CC(c2ccc(Br)cc2)N=C1c1c(F)cccc1F (centres unmarked) [Example 12, 2-(4-bromophenyl)-5-(2,6-difluorophenyl)-3,4-dihydro-2H-pyrrole-4-sulphonic acid]?
chromatographic logP [1, 4]: 1.4; chromatographic logP [1, 7]: 1.6

With O=S(=O)(O)C1CC(c2ccc(-c3ccc(OC(F)(F)F)cc3)cc2)N=C1c1c(F)cccc1F (centres unmarked) [Example 13, 5-(2,6-difluorophenyl)-2-[4′-(trifluoromethoxy)-1,1′-biphenyl-4-yl]-3,4-dihydro-2H-pyrrole-4-sulphonic acid] as the compound, how does the “log P1” value ([1]; first HPLC peak of the mixture of diastereomers, reversed-phase C 18, 43° C., pH 2.3) read?
Its value is 2.29.

What about the chromatographic logP [1, 4] of the same compound?
Its chromatographic logP is 2.32.

What about the chromatographic logP [1, 7] of the same compound?
Its chromatographic logP is 2.46.

For Fc1cccc(F)c1C1=N[C@@H](c2ccc(-c3ccc(OC(F)(F)F)cc3)cc2)CC1=Cc1ccc(Br)cc1 [Example 14, (2R)-4-(4-bromobenzylidene)-5-(2,6-difluorophenyl)-2-[4′-(trifluoromethoxy)-1,1′-biphenyl-4-yl]-3,4-dihydro-2H-pyrrole], which chromatographic logP [1, 6] is on record?
Its chromatographic logP is 6.43.

Which chromatographic logP [1, 6] does the source give for CCOS(=O)(=O)C1CC(c2ccc(-c3ccc(OC(F)(F)F)cc3)cc2)N=C1c1c(F)cccc1F (centres unmarked) [Example 15, ethyl 5-(2,6-difluorophenyl)-2-[4′-(trifluoromethoxy)-1,1′-biphenyl-4-yl]-3,4-dihydro-2H-pyrrole-4-sulphonate] here?
Its chromatographic logP is 4.77.

Which chromatographic logP [1, 6] does the source give for Fc1cccc(F)c1C1=NC(c2ccc(-c3ccc(OC(F)(F)F)cc3)cc2)CC1=Cc1ccccc1 (centres unmarked) [Example 16, 4-benzylidene-5-(2,6-difluorophenyl)-2-[4′-(trifluoromethoxy)-1,1′-biphenyl-4-yl]-3,4-dihydro-2H-pyrrole] here?
Its chromatographic logP is 5.77.

For CC(C)C=C1CC(c2ccc(-c3ccc(OC(F)(F)F)cc3)cc2)N=C1c1c(F)cccc1F (centres unmarked) [Example 17, 4-(2-methylpropylidene)-5-(2,6-difluorophenyl)-2-[4′-(trifluoromethoxy)-1,1′-biphenyl-4-yl]-3,4-dihydro-2H-pyrrole], which chromatographic logP [1, 6] is on record?
Its chromatographic logP is 5.8.

Which pest or weed control at 1000 ppm [2] does the source give for Fc1cccc(F)c1C1=NC(c2ccc(-c3ccc(OC(F)(F)F)cc3)cc2)CC1(Cl)Cl (centres unmarked) [drawing 56] here?
The pest or weed control at 1000 ppm was 100%.

For Fc1cccc(F)c1C1=NC(c2ccc(-c3ccc(OC(F)(F)F)cc3)cc2)CC1Cl (centres unmarked) [drawing 57], which pest or weed control at 1000 ppm [2] is on record?
Its pest or weed control at 1000 ppm is 100%.

For Fc1cccc(F)c1C1=N[C@@H](c2ccc(-c3ccc(OC(F)(F)F)cc3)cc2)CC1(Cl)Cl [drawing 58], which pest or weed control at 1000 ppm [2] is on record?
The pest or weed control at 1000 ppm was 100%.

Which pest or weed control at 1000 ppm [2] does the source give for Fc1cccc(F)c1C1=N[C@@H](c2ccc(-c3ccc(OC(F)(F)F)cc3)cc2)CC1(Br)Br [drawing 59] here?
Its pest or weed control at 1000 ppm is 100%.

With Fc1cccc(F)c1C1=N[C@@H](c2ccc(-c3ccc(OC(F)(F)F)cc3)cc2)C/C1=C\c1ccc(Br)cc1 [drawing 60] as the compound, how does the pest or weed control at 1000 ppm [2] read?
Its pest or weed control at 1000 ppm is 100%.

With O=S(=O)(Oc1ccc([C@H]2CC(Cl)C(c3c(F)cccc3F)=N2)cc1)C(F)(F)F (some centres unmarked) [drawing 61] as the compound, how does the pest or weed control at 1000 ppm [2] read?
The pest or weed control at 1000 ppm was 100%.

Which pest or weed control at 1000 ppm [2] does the source give for O=S(=O)(Oc1ccc([C@H]2CC(Cl)(Cl)C(c3c(F)cccc3F)=N2)cc1)C(F)(F)F [drawing 62] here?
The pest or weed control at 1000 ppm was 100%.

For O=S(=O)(Oc1ccc([C@H]2CC(Br)C(c3c(F)cccc3F)=N2)cc1)C(F)(F)F (some centres unmarked) [drawing 63], which pest or weed control at 1000 ppm [2] is on record?
The pest or weed control at 1000 ppm was 100%.

Which pest or weed control at 1000 ppm [2] does the source give for O=S(=O)(Oc1ccc(-c2ccc([C@H]3C[C@H](Cl)C(c4c(F)cccc4F)=N3)cc2)cc1)C(F)(F)F [drawing 64] here?
Its pest or weed control at 1000 ppm is 100%.

With Fc1cccc(F)c1C1=NC(c2ccc(-c3ccc(OC(F)(F)F)cc3)cc2)CC1(Cl)Cl (centres unmarked) [drawing 76] as the compound, how does the “Kill rate in % after 7 d” value [3] read?
Its value is 98%.

For Fc1cccc(F)c1C1=NC(c2ccc(-c3ccc(OC(F)(F)F)cc3)cc2)CC1Cl (centres unmarked) [drawing 77], which “Kill rate in % after 7 d” value [3] is on record?
Its value is 98%.

Which “Kill rate in % after 7 d” value [3] does the source give for Fc1cccc(F)c1C1=N[C@@H](c2ccc(-c3ccc(OC(F)(F)F)cc3)cc2)CC1(Cl)Cl [drawing 78] here?
Its value is 98%.

Which “Kill rate in % after 7 d” value [3] does the source give for Fc1cccc(F)c1C1=N[C@@H](c2ccc(-c3ccc(OC(F)(F)F)cc3)cc2)CC1(Br)Br [drawing 79] here?
The value was 98%.

Which chromatographic logP ([1]; HPLC, reversed-phase column (C 18), 43° C., pH 2.3, 0.1% aqueous phosphoric acid/acetonitrile, read-out: log P) does the source give for CC(C)(C)OC(=O)N1C(=O)C(C)(C)CC1c1ccc(-c2ccc(OC(F)(F)F)cc2)cc1 (centres unmarked) [tert-butyl 3,3-dimethyl-2-oxo-5-[4′-(trifluoromethoxy)-1,1′-biphenyl-4-yl]-1-pyrrolidinecarboxylate] here?
Its chromatographic logP is 4.99.

For CC(C)(C)OC(=O)NC(CC(C)(C)C(=O)c1c(F)cccc1F)c1ccc(-c2ccc(OC(F)(F)F)cc2)cc1 (centres unmarked) [tert-butyl 4-(2,6-difluorophenyl)-3,3-dimethyl-4-oxo-1-[4′-(trifluoromethoxy)-1,1′-biphenyl-4-yl]butylcarbamate], which chromatographic logP [1, 6] is on record?
Its chromatographic logP is 6.45.
